Experimental data taken from publication PMC4774972, “Activity and Predicted Nephrotoxicity of Synthetic Antibiotics Based on Polymyxin B” (Journal of Medicinal Chemistry, 2016).
Converted amounts (≈) assume the structure as drawn. Numbered stars: 1 amine (or outer) side, 2 acyl side, 3 side chain; on linkers, the order of the positions; unused ones are H or OH. Bridge positions count the residues as written; N and C are the ends. Square brackets hold non-standard residues; d marks the D form. Peptide text beside a SMILES is read from it. * marks the point of attachment. ξ: configuration not given here. Octanoyl(6-Me) = CCC(C)CCCCC(=O)*; ξGly(octyl) = CCCCCCCCC(N)C(=O)O; NH(2-ClPh) = Clc1ccccc1N*; Octanoyl = CCCCCCCC(=O)*; Dab = NCC[C@H](N)C(=O)O; CO = O=C([*:1])[*:2]

Tests used:
HepG2 cells = assay: Cytotoxicity assay (resazurin assay); type: cell-based, human; settings: 4000 cells/well, 24 h incubation with compound, fluorescence 560/590
Description: Cytotoxicity to HEK293 and HepG2 cells was determined using the resazurin assay.[67],[68] […] Compounds were then added into each well. After 24 h incubation, 5 μM resazurin was added per well and incubated at 37 °C for 2 h. Fluorescence intensity was then read using a Polarstar Omega with excitation/emission 560/590. The data were then analyzed using GraphPad Prism 6 software. CC50 values were determined using GraphPad Prism 6 software (Inc. La Jolla, CA).

[1] = system: A. baumannii CI Ptyela 100734512:2, PmxR; assay: microbe, parasite or virus in culture; type: cell-based, Acinetobacter baumannii; settings: carbapenem & polymyxin resistant clinical isolate; MHB, 5 × 10^5 CFU/mL, 18 h at 37 °C
Description: (§1) Bacteria were either obtained from American Type Culture Collection (ATCC; Manassas, VA, USA) or independent academic clinical isolate collections, as listed in Table S2. Bacteria were cultured in nutrient broth (NB; Bacto Laboratories, catalog no. 234000) or Muller Hinton broth (MHB; Bacto Laboratories, catalog no. 211443) at 37 °C overnight with shaking (∼180 rpm). A sample of each culture was then diluted 50-fold in fresh MHB and incubated at 37 °C for 1.5–3 h with shaking (∼180 rpm). Compound stock solutions were prepared as 0.64 or 2.56 mg/mL in water. The compounds, at twice the final desired concentration, were serially diluted 2-fold across the wells of 96-well plates (Polystyrene, Corning, catalogue No. 3370). Mid log phase bacterial cultures (after 1.5–3 h incubation) were diluted to a final concentration of 5 × 10^5 colony forming units (CFU)/mL, and 50 μL was added to each well giving a final compound concentration range of 32 μg/mL to 0.015 μg/mL (128–0.06 μg/mL for colistin and polymyxin B against the polymyxin resistant clinical isolates). MICs were determined visually after 18 h of incubation at 37 °C, with the MIC defined as the lowest compound concentration at which no bacterial growth was visible.
(§2) Table S2. Bacterial strains used for Minimum Inhibitory Concentration (MIC) […]
(§3) Organism Strain Strain description Strain Source
(§4) Escherichia coli ATCC 25922 FDA strain Seattle 1946 ATCC
(§5) Klebsiella pneumoniae ATCC 13883 Control strain ATCC
(§6) Klebsiella pneumoniae ATCC 700603 Multi-drug resistant ATCC
(§7) Klebsiella pneumoniae BAA-2146 Metallo-beta-lactamase- ATCC
(§8) Acinetobacter baumannii ATCC 19606 Type strain ATCC
(§9) Pseudomonas aeruginosa ATCC 27853 Type strain ATCC
(§10) Pseudomonas aeruginosa FADDI-PA070 Clinical isolate, Nation and Li labs, polymyxin resistant Monash University
(§11) Clinical isolate, Wang Hengzhuang, Pseudomonas aeruginosa PA9704 polymyxin resistant University Hospital of […]
(§12) Ptyela Clinical isolate, Ilias Karaiskos and Acinetobacter baumannii Carbapenem & Helen Giamarellou
(§13) Clinical isolate, Medicine, Hygeia
(§14) Klebsiella pneumoniae Koprana Carbapenem, & General Hospital, […]
(§15) Clinical isolate, (Instituto Dante […]
(§16) polymyxin resistant Cardiologia, São […]

[2] = system: S. aureus ATCC 25923, MSSA; assay: microbe, parasite or virus in culture; type: cell-based, Staphylococcus aureus; settings: MHB, 5 × 10^5 CFU/mL, read visually after 18 h at 37 °C
Description: as §1, §2, §3, §4, §5, §6, §7, §8, §9, §10, §11, §12, §13, §14, §15, §16

[3] = system: A. baumannii CI Ptyela 100734512:2, PmxR; settings: MIC A. baumannii CI Ptyela 100734512:2, PmxR (µg/mL)
[4] = system: P. aeruginosa FADDI-PA070, PmxR; settings: MIC P. aeruginosa FADDI-PA070, PmxR (µg/mL)
[5] = system: K. pneumoniae CI Koprana 100650661:1, PmxR; settings: MIC K. pneumoniae CI Koprana 100650661:1, PmxR (µg/mL)
[6] = system: S. aureus ATCC 25923, MSSA; settings: MIC S. aureus ATCC 25923, MSSA (µg/mL)
[7] = system: P. aeruginosa PA9704, PmxR; settings: MIC P. aeruginosa PA9704, PmxR (µg/mL)
[8] = system: K. pneumoniae CI 138-16357-20362, PmxR; settings: MIC K. pneumoniae CI 138-16357-20362, PmxR (µg/mL)
HepG2 = settings: CC50 HepG2 (µM)
[9] = system: K. pneumoniae CI Koprana 100650661:1, PmxR; assay: microbe, parasite or virus in culture; type: cell-based, Klebsiella pneumoniae; settings: carbapenem & polymyxin resistant clinical isolate; MHB, 5 × 10^5 CFU/mL, 18 h at 37 °C
[10] = system: K. pneumoniae CI 138-16357-20362, PmxR; assay: microbe, parasite or virus in culture; type: cell-based, Klebsiella pneumoniae; settings: carbapenem & polymyxin resistant clinical isolate; MHB, 5 × 10^5 CFU/mL, 18 h at 37 °C
[11] = system: P. aeruginosa FADDI-PA070, PmxR; type: cell-based, Pseudomonas aeruginosa; settings: polymyxin resistant clinical isolate; MHB, 5 × 10^5 CFU/mL, 18 h at 37 °C
Description: as §1, §2, §3, §4, §5, §6, §7, §8, §9, §10, §11, §12, §13, §14, §15, §16

P. aeruginosa ATCC 27853 = settings: MIC P. aeruginosa ATCC 27853 (µg/mL)
[12] = system: K. pneumoniae ATTC BAA-2146, NDM-1 pos; settings: MIC K. pneumoniae ATTC BAA-2146, NDM-1 pos (µg/mL)
K. pneumoniae ATCC 13883 = settings: MIC K. pneumoniae ATCC 13883 (µg/mL)
[13] = system: K. pneumoniae ATCC 700603, MDR; settings: MIC K. pneumoniae ATCC 700603, MDR(µg/mL)
A. baumannii ATCC 19606 [14] = settings: MIC A. baumannii ATCC 19606 (µg/mL)
E. coli ATCC 25922 = settings: MIC E. coli ATCC 25922 (µg/mL)
A. baumannii ATCC 19606 [15] = type: cell-based, Acinetobacter baumannii; settings: ATCC 19606, 18 h
Description: as §1, §2, §3, §4, §5, §6, §7, §8, §9, §10, §11, §12, §13, §14, §15, §16

Row | Compound | HepG2 - CC50 (HepG2 cells) | MIC A. baumannii CI Ptyela 100734512:2, PmxR [1] | MIC S. aureus ATCC 25923, MSSA [2] | MIC [3] | MIC [4] | MIC [5] | MIC [6] | MIC [7] | MIC [8] | CC50 (HepG2) | MIC K. pneumoniae CI Koprana 100650661:1, PmxR [9] | MIC K. pneumoniae CI 138-16357-20362, PmxR [10] | MIC P. aeruginosa FADDI-PA070, PmxR [11] | MIC (P. aeruginosa ATCC 27853) | MIC [12] | MIC (K. pneumoniae ATCC 13883) | MIC [13] | MIC (A. baumannii ATCC 19606 [14]) | MIC (E. coli ATCC 25922) | MIC A. baumannii ATCC 19606 (A. baumannii ATCC 19606 [15])
1 | CCCCCCCC(=O)N[C@@H](CCN)C(=O)N[C@H](C(=O)N[C@@H](CCN)C(=O)N[C@H]1CCNC(=O)[C@H]([C@@H](C)O)NC(=O)[C@H](CCN)NC(=O)[C@H](CCN)NC(=O)[C@H](CC(C)C)NC(=O)[C@@H](Cc2ccccc2)NC(=O)[C@H](CCN)NC1=O)[C@@H](C)O [Compound 11, polymyxin B3] (Octanoyl-[Dab]T[Dab][Dab][Dab][dF]L[Dab][Dab]T; lactam 4-C) | >300 µM | >64 µg/mL | >128 µg/mL | > 64 µg/mL | > 32 µg/mL | > 128 µg/mL | > 128 µg/mL | > 128 µg/mL | > 128 µg/mL | > 300 µM | >128 µg/mL | >128 µg/mL | >32 µg/mL |  |  |  |  |  |  | 
2 | CCC(C)CCCCC(=O)N[C@@H](CCN)C(=O)N[C@H](C(=O)N[C@@H](CCN)C(=O)N[C@H]1CCNC(=O)[C@H]([C@@H](C)O)NC(=O)[C@H](CCN)NC(=O)[C@H](CCN)NC(=O)[C@H](CC(C)C)NC(=O)[C@@H](CC(C)C)NC(=O)[C@H](CCN)NC1=O)[C@@H](C)O (stereo partly drawn) ({Octanoyl(6-Me)}-[Dab]T[Dab][Dab][Dab][dL]L[Dab][Dab]T; lactam 4-C) |  |  |  | > 64 µg/mL | > 32 µg/mL | > 128 µg/mL | > 128 µg/mL | 128 µg/mL (≈ 109 µM) | 64 µg/mL (≈ 54.7 µM) | > 300 µM |  |  |  | 0.5 µg/mL (≈ 0.428 µM) | 0.25 µg/mL (≈ 0.214 µM) | 0.25 µg/mL (≈ 0.214 µM) | 0.25 µg/mL (≈ 0.214 µM) | 0.25 µg/mL (≈ 0.214 µM) | 0.25 µg/mL (≈ 0.214 µM) | 
3 | CCC(C)CCCCC(=O)N[C@@H](CCN)C(=O)N[C@H](C(=O)N[C@@H](CCN)C(=O)N[C@H]1CCNC(=O)[C@H]([C@@H](C)O)NC(=O)[C@H](CCN)NC(=O)[C@H](CCN)NC(=O)[C@H](CC(C)C)NC(=O)[C@@H](Cc2ccccc2)NC(=O)[C@H](CCN)NC1=O)[C@@H](C)O (some centres unmarked) |  |  |  | 64 µg/mL (≈ 53.2 µM) | 32 µg/mL (≈ 26.6 µM) | 64 µg/mL (≈ 53.2 µM) | > 64 µg/mL | 128 µg/mL (≈ 106 µM) | 64 µg/mL (≈ 53.2 µM) | > 300 µM |  |  |  | 0.5 µg/mL (≈ 0.415 µM) | 0.25 µg/mL (≈ 0.208 µM) | 1 µg/mL (≈ 0.831 µM) | 0.5 µg/mL (≈ 0.415 µM) | 0.25 µg/mL (≈ 0.208 µM) | 1 µg/mL (≈ 0.831 µM) | 
4 | CCCCCCCCC1NC(=O)[C@@H](Cc2ccccc2)NC(=O)[C@H](CCN)NC(=O)[C@@H](NC(=O)[C@H](CCN)NC(=O)[C@@H](NC(=O)[C@H](CCN)NC(=O)CCCCCCC)[C@@H](C)O)CCNC(=O)[C@H]([C@@H](C)O)NC(=O)[C@H](CCN)NC(=O)[C@H](CCN)NC1=O (some centres unmarked) [Compound 28] (Octanoyl-[Dab]T[Dab][Dab][Dab][dF][ξGly(octyl)][Dab][Dab]T; lactam 4-C) |  |  |  |  |  |  |  |  |  |  |  |  |  |  |  |  |  |  |  | 1(1) μg/mL
5 | CCCCCCCC(=O)N[C@@H](CCN)C(=O)N[C@H](C(=O)N[C@@H](CCN)C(=O)N[C@H]1CCNC(=O)[C@H]([C@@H](C)O)NC(=O)[C@H](CCN)NC(=O)[C@H](CCN)NC(=O)[C@H](CC(C)C)NC(=O)[C@@H](Cc2ccccc2)NC(=O)[C@H](CCNC(=O)[C@@H](N)CCC(=O)O)NC1=O)[C@@H](C)O [Compound 32] (Octanoyl-[Dab]T[Dab][Dab][Dab](Glu)[dF]L[Dab][Dab]T; lactam 4-C) |  |  |  | > 32 µg/mL | > 32 µg/mL | > 32 µg/mL | > 32 µg/mL | > 32 µg/mL | > 32 µg/mL | > 300 µM | >32 µg/mL | >32 µg/mL |  | > 32 µg/mL |  | > 32 µg/mL | > 32 µg/mL | > 32 µg/mL | > 32 µg/mL | 
6 | CC(C)C[C@@H]1NC(=O)[C@@H](Cc2ccccc2)NC(=O)[C@H](CCN)NC(=O)[C@@H](NC(=O)[C@@H](CO)NC(=O)[C@@H](NC(=O)[C@H](CCN)NC(=O)Nc2ccccc2Cl)[C@@H](C)O)CCNC(=O)[C@H]([C@@H](C)O)NC(=O)[C@H](CCN)NC(=O)[C@H](CCN)NC1=O [Compound 17] ({NH(2-ClPh)-CO}-[Dab]T[dS][Dab][Dab][dF]L[Dab][Dab]T; lactam 4-C) |  |  |  | > 32 µg/mL | > 32 µg/mL | > 32 µg/mL | > 32 µg/mL | > 32 µg/mL | > 32 µg/mL | > 300 µM | >32 µg/mL | >32 µg/mL |  |  | > 32 µg/mL |  |  | > 32 µg/mL |  | 
